Laboratory results from article PMC5218480 (PLoS ONE, 2017).

System: MV-4-11 cells
Test: Gene expression microarray analysis (Affymetrix PrimeView) and GSEA
Type: cell-based, human
Parameters: RFU PODN (11730768_x_at) / Fold change /veh PODN (11730768_x_at) / RFU LINC00158 (11744669_a_at) / Fold change /veh LINC00158 (11744669_a_at) / RFU DUSP10 (11751237_a_at) / Fold change /veh DUSP10 (11751237_a_at) / RFU ID3 (11757404_x_at) / Fold change /veh ID3 (11757404_x_at) / RFU PLEKHG5 (11737974_s_at) / Fold change /veh PLEKHG5 (11737974_s_at) / RFU LRRC4B (11730491_at) / Fold change /veh LRRC4B (11730491_at) / RFU GIMAP4 (11747438_a_at) / Fold change /veh GIMAP4 (11747438_a_at) / RFU KRT8 (11758183_x_at) / Fold change /veh KRT8 (11758183_x_at) / RFU CNN1 (11734310_a_at) / Fold change /veh CNN1 (11734310_a_at) / RFU VPS37D (11726825_at) / Fold change /veh VPS37D (11726825_at) / RFU C10orf10 (11716522_x_at) / Fold change /veh C10orf10 (11716522_x_at) / RFU KIR2DL2 /// KIR2DL4 /// KIR2DL5A /// KIR2DL5B /// KIR2DS1 /// KIR2DS2 /// KIR2DS3 /// KIR2DS4 /// KIR3DL3 /// KIR3DL3 /// KIR3DS1 (11738374_at) / Fold change /veh KIR2DL2 /// KIR2DL4 /// KIR2DL5A /// KIR2DL5B /// KIR2DS1 /// KIR2DS2 /// KIR2DS3 /// KIR2DS4 /// KIR3DL3 /// KIR3DL3 /// KIR3DS1 (11738374_at) / RFU C1QL1 (11718748_at) / Fold change /veh C1QL1 (11718748_at) / RFU TMPRSS4 (11747572_a_at) / Fold change /veh TMPRSS4 (11747572_a_at) / RFU HAMP (11756126_x_at) / Fold change /veh HAMP (11756126_x_at) / RFU RNFT2 (11725882_a_at) / Fold change /veh RNFT2 (11725882_a_at) / RFU NR4A2 (11747474_a_at) / Fold change /veh NR4A2 (11747474_a_at) / RFU ABCC12 (11746883_a_at) / Fold change /veh ABCC12 (11746883_a_at) / RFU TMEM136 (11760407_x_at) / Fold change /veh TMEM136 (11760407_x_at) / RFU CLDN22 /// WWC2 (11732394_at) / Fold change /veh CLDN22 /// WWC2 (11732394_at) / RFU HLA-DPB1 (11760878_x_at) / Fold change /veh HLA-DPB1 (11760878_x_at) / RFU SPINT1 (11716480_a_at) / Fold change /veh SPINT1 (11716480_a_at) / RFU GAP43 (11754022_s_at) / Fold change /veh GAP43 (11754022_s_at) / RFU A4GNT (11735810_at) / Fold change /veh A4GNT (11735810_at) / RFU PRB3 (11715151_x_at) / Fold change /veh PRB3 (11715151_x_at) / RFU TUBB4B (11761932_at) / Fold change /veh TUBB4B (11761932_at) / RFU CAPN14 (11732068_a_at) / Fold change /veh CAPN14 (11732068_a_at) / RFU TMCC2 (11721928_a_at) / Fold change /veh TMCC2 (11721928_a_at) / RFU IRGQ (11745062_a_at) / Fold change /veh IRGQ (11745062_a_at) / RFU FAM174B (11720279_a_at) / Fold change /veh FAM174B (11720279_a_at) / RFU TMPRSS4 (11748680_a_at) / Fold change /veh TMPRSS4 (11748680_a_at) / RFU FAM212B (11763350_a_at) / Fold change /veh FAM212B (11763350_a_at) / RFU PLEKHG5 (11743358_a_at) / Fold change /veh PLEKHG5 (11743358_a_at) / RFU ZSCAN30 (11745921_a_at) / Fold change /veh ZSCAN30 (11745921_a_at) / RFU CMKLR1 (11741424_a_at) / Fold change /veh CMKLR1 (11741424_a_at) / RFU LOC101060620 /// MAPK8IP1 (11723275_at) / Fold change /veh LOC101060620 /// MAPK8IP1 (11723275_at) / RFU SPTSSB (11747773_x_at) / Fold change /veh SPTSSB (11747773_x_at) / RFU PRSS12 (11739890_at) / Fold change /veh PRSS12 (11739890_at) / RFU BIN1 (11741810_x_at) / Fold change /veh BIN1 (11741810_x_at) / RFU WNT11 (11732464_a_at) / Fold change /veh WNT11 (11732464_a_at) / RFU C10orf10 (11716521_a_at) / Fold change /veh C10orf10 (11716521_a_at) / RFU C5orf56 (11738089_at) / Fold change /veh C5orf56 (11738089_at) / RFU CYB561 (11721691_x_at) / Fold change /veh CYB561 (11721691_x_at) / RFU ANKRD19P (11752326_a_at) / Fold change /veh ANKRD19P (11752326_a_at) / RFU OR2T12 /// OR2T33 /// OR2T8 (11738714_s_at) / Fold change /veh OR2T12 /// OR2T33 /// OR2T8 (11738714_s_at) / RFU VCAN (11748164_a_at) / Fold change /veh VCAN (11748164_a_at) / RFU JSRP1 (11732532_at) / Fold change /veh JSRP1 (11732532_at) / RFU KRTAP10-11 (11738290_x_at) / Fold change /veh KRTAP10-11 (11738290_x_at) / RFU MYO3A (11730013_a_at) / Fold change /veh MYO3A (11730013_a_at) / RFU EBF3 (11725865_a_at) / Fold change /veh EBF3 (11725865_a_at) / RFU CAMK2N1 (11719241_x_at) / Fold change /veh CAMK2N1 (11719241_x_at) / RFU C5orf56 (11738088_a_at) / Fold change /veh C5orf56 (11738088_a_at) / RFU OLFML3 (11715873_a_at) / Fold change /veh OLFML3 (11715873_a_at) / RFU LOC100653217 /// NTM (11731650_a_at) / Fold change /veh LOC100653217 /// NTM (11731650_a_at) / RFU MAPK11 (11762145_a_at) / Fold change /veh MAPK11 (11762145_a_at) / RFU FIZ1 (11724087_x_at) / Fold change /veh FIZ1 (11724087_x_at) / RFU OASL (11726364_x_at) / Fold change /veh OASL (11726364_x_at) / RFU SOX15 (11748057_x_at) / Fold change /veh SOX15 (11748057_x_at) / RFU CD79A (11719716_a_at) / Fold change /veh CD79A (11719716_a_at) / RFU HIST1H1D (11736915_at) / Fold change /veh HIST1H1D (11736915_at) / RFU CASKIN2 (11723855_a_at) / Fold change /veh CASKIN2 (11723855_a_at) / RFU LOC730098 (11760151_x_at) / Fold change /veh LOC730098 (11760151_x_at) / RFU OR4N2 (11742367_at) / Fold change /veh OR4N2 (11742367_at) / RFU PRRT2 (11749266_a_at) / Fold change /veh PRRT2 (11749266_a_at) / RFU SNX32 (11753110_a_at) / Fold change /veh SNX32 (11753110_a_at) / RFU CDHR5 (11726645_a_at) / Fold change /veh CDHR5 (11726645_a_at) / RFU RCAN1 (11760418_a_at) / Fold change /veh RCAN1 (11760418_a_at) / RFU FAM167A (11723789_a_at) / Fold change /veh FAM167A (11723789_a_at) / RFU FAM26E (11764081_at) / Fold change /veh FAM26E (11764081_at) / RFU ISYNA1 (11749810_s_at) / Fold change /veh ISYNA1 (11749810_s_at) / RFU ACY1 (11761880_at) / Fold change /veh ACY1 (11761880_at) / RFU 11764098_at / Fold change /veh 11764098_at / RFU SAMD14 (11745864_x_at) / Fold change /veh SAMD14 (11745864_x_at) / RFU NPB (11741838_a_at) / Fold change /veh NPB (11741838_a_at) / RFU TMPRSS6 (11731388_a_at) / Fold change /veh TMPRSS6 (11731388_a_at) / RFU KRTAP10-2 (11738614_at) / Fold change /veh KRTAP10-2 (11738614_at) / RFU ARHGAP8 /// PRR5-ARHGAP8 (11727945_x_at) / Fold change /veh ARHGAP8 /// PRR5-ARHGAP8 (11727945_x_at) / RFU KRTAP5-7 /// NADSYN1 (11734609_at) / Fold change /veh KRTAP5-7 /// NADSYN1 (11734609_at) / RFU RASL12 (11751679_a_at) / Fold change /veh RASL12 (11751679_a_at) / RFU CDKN2B (11736163_a_at) / Fold change /veh CDKN2B (11736163_a_at) / RFU PRF1 (11729649_at) / Fold change /veh PRF1 (11729649_at) / RFU, ZNF638 /// ZNF638-IT1 / Fold change vs veh, ZNF638 /// ZNF638-IT1 / RFU, PANK3 / Fold change vs veh, PANK3 / RFU, SH3YL1 / Fold change vs veh, SH3YL1 / RFU, ZEB2 / Fold change vs veh, ZEB2 / RFU, NRIP1 / Fold change vs veh, NRIP1 / RFU, PTTG1IP / Fold change vs veh, PTTG1IP / RFU, CAPN2 / Fold change vs veh, CAPN2 / RFU, MED14 / Fold change vs veh, MED14 / RFU, SNORA58 / Fold change vs veh, SNORA58 / RFU, C1orf63 / Fold change vs veh, C1orf63 / RFU, LRRFIP1 / Fold change vs veh, LRRFIP1 / RFU, NDUFAF7 / Fold change vs veh, NDUFAF7 / RFU, SLC12A2 / Fold change vs veh, SLC12A2 / RFU, IBTK / Fold change vs veh, IBTK / RFU, ESF1 / Fold change vs veh, ESF1 / Fold change vs veh, TMEM50B / RFU, TAOK1 / Fold change vs veh, TAOK1 / RFU, ACBD3 / Fold change vs veh, ACBD3 / RFU, TMA16 / Fold change vs veh, TMA16 / RFU, RWDD3 / Fold change vs veh, RWDD3 / RFU, BCAT1 / Fold change vs veh, BCAT1 / RFU, EDEM3 / Fold change vs veh, EDEM3 / RFU, TMEM33 / Fold change vs veh, TMEM33 / RFU, WDR75 / Fold change vs veh, WDR75 / RFU, AHCTF1 / Fold change vs veh, AHCTF1 / RFU, TFRC / Fold change vs veh, TFRC / RFU, ZDHHC17 / Fold change vs veh, ZDHHC17 / RFU, NOM1 / Fold change vs veh, NOM1 / RFU, ARL8B / Fold change vs veh, ARL8B / RFU, ZBTB11 / Fold change vs veh, ZBTB11 / RFU, TAMM41 / Fold change vs veh, TAMM41 / RFU, KIAA1704 /// LOC100996395 / Fold change vs veh, KIAA1704 /// LOC100996395 / RFU, ING1 / Fold change vs veh, ING1 / RFU, TRMT61B / Fold change vs veh, TRMT61B / RFU, FUBP3 / Fold change vs veh, FUBP3 / RFU, TP53 / Fold change vs veh, TP53 / RFU, TNKS2 / Fold change vs veh, TNKS2 / RFU, ZFP14 / Fold change vs veh, ZFP14 / RFU, ACTR2 / Fold change vs veh, ACTR2 / RFU, PPP3R1 / Fold change vs veh, PPP3R1 / RFU, PIK3R1 / Fold change vs veh, PIK3R1 / RFU, HNRNPA1 / Fold change vs veh, HNRNPA1 / RFU, RNF170 / Fold change vs veh, RNF170 / RFU, ZNF28 / Fold change vs veh, ZNF28 / RFU, RNGTT / Fold change vs veh, RNGTT / RFU, OGT / Fold change vs veh, OGT / RFU, BRD1 / Fold change vs veh, BRD1 / RFU, MARS / Fold change vs veh, MARS / RFU, ZNF655 / Fold change vs veh, ZNF655 / RFU, FAHD1 / Fold change vs veh, FAHD1 / RFU, BDP1 / Fold change vs veh, BDP1 / RFU, LRRCC1 / Fold change vs veh, LRRCC1 / RFU, ARID1A / Fold change vs veh, ARID1A / RFU, ZNF146 / Fold change vs veh, ZNF146 / RFU, ZNF330 / Fold change vs veh, ZNF330 / RFU, GPN3 / Fold change vs veh, GPN3 / RFU, C9orf123 / Fold change vs veh, C9orf123 / RFU, N4BP2L2 / Fold change vs veh, N4BP2L2 / RFU, ARFIP1 / Fold change vs veh, ARFIP1 / RFU, FAM179B / Fold change vs veh, FAM179B / RFU, BCL10 / Fold change vs veh, BCL10 / RFU, UHRF1BP1L / Fold change vs veh, UHRF1BP1L / RFU, BET1 / Fold change vs veh, BET1 / RFU, CNOT2 / Fold change vs veh, CNOT2 / RFU, ZNF268 / Fold change vs veh, ZNF268 / Fold change vs veh, ZNF507 / RFU, DGCR2 / Fold change vs veh, DGCR2 / RFU, WDSUB1 / Fold change vs veh, WDSUB1 / Fold change vs veh, HSP90B1 /// MIR3652 / RFU, ADSS / Fold change vs veh, ADSS / RFU, GK / Fold change vs veh, GK / RFU, ZNF148 / Fold change vs veh, ZNF148 / RFU, TAF9 / Fold change vs veh, TAF9 / RFU, SLC1A5 / Fold change vs veh, SLC1A5 / RFU, SLMO2 / Fold change vs veh, SLMO2 / RFU, ABCC4 / Fold change vs veh, ABCC4 / RFU, LOC101060439 /// RAP1B / Fold change vs veh, LOC101060439 /// RAP1B / RFU, RFX7 / Fold change vs veh, RFX7 / RFU, GTPBP10 / Fold change vs veh, GTPBP10 / RFU, CNEP1R1 / Fold change vs veh, CNEP1R1 / RFU, BIVM-ERCC5 /// ERCC5 / Fold change vs veh, BIVM-ERCC5 /// ERCC5 / RFU, ILF3 / Fold change vs veh, ILF3 / RFU 11762660_at / Fold change /veh 11762660_at / RFU VCAN (11757783_s_at) / Fold change /veh VCAN (11757783_s_at) / RFU DDX43 (11728927_at) / Fold change /veh DDX43 (11728927_at) / RFU KRT8 (11758188_x_at) / Fold change /veh KRT8 (11758188_x_at) / RFU NKD1 (11759106_at) / Fold change /veh NKD1 (11759106_at) / RFU SRD5A1 (11742802_a_at) / Fold change /veh SRD5A1 (11742802_a_at) / RFU TPSAB1 /// TPSB2 (11721975_s_at) / Fold change /veh TPSAB1 /// TPSB2 (11721975_s_at) / RFU GSTM3 (11746129_a_at) / Fold change /veh GSTM3 (11746129_a_at) / RFU IL23R (11737362_x_at) / Fold change /veh IL23R (11737362_x_at) / RFU TMEM51 (11727254_a_at) / Fold change /veh TMEM51 (11727254_a_at) / RFU PIWIL2 (11732686_x_at) / Fold change /veh PIWIL2 (11732686_x_at) / RFU ORM1 (11744905_x_at) / Fold change /veh ORM1 (11744905_x_at) / RFU CCDC152 (11743942_at) / Fold change /veh CCDC152 (11743942_at) / RFU ECM1 (11717891_a_at) / Fold change /veh ECM1 (11717891_a_at) / RFU IL23R (11748794_a_at) / Fold change /veh IL23R (11748794_a_at) / RFU TNFAIP8L3 (11732012_x_at) / Fold change /veh TNFAIP8L3 (11732012_x_at) / RFU MBOAT4 (11741988_at) / Fold change /veh MBOAT4 (11741988_at) / RFU 11764193_at / Fold change /veh 11764193_at / RFU TMEM53 (11763286_at) / Fold change /veh TMEM53 (11763286_at) / RFU MAGEB2 (11727129_at) / Fold change /veh MAGEB2 (11727129_at) / RFU TMEM200A (11744735_a_at) / Fold change /veh TMEM200A (11744735_a_at) / RFU CCDC152 (11751479_a_at) / Fold change /veh CCDC152 (11751479_a_at) / RFU FAM211A (11726209_a_at) / Fold change /veh FAM211A (11726209_a_at) / RFU RGS16 (11746705_a_at) / Fold change /veh RGS16 (11746705_a_at) / RFU VCAN (11755009_s_at) / Fold change /veh VCAN (11755009_s_at) / RFU RHOB (11743442_s_at) / Fold change /veh RHOB (11743442_s_at) / RFU RGS16 (11720943_a_at) / Fold change /veh RGS16 (11720943_a_at) / RFU RGS16 (11720944_at) / Fold change /veh RGS16 (11720944_at) / RFU, VPS4B / Fold change vs veh, VPS4B / RFU, CREB1 / Fold change vs veh, CREB1 / RFU, DNAJC13 / Fold change vs veh, DNAJC13 / RFU, GNAQ / Fold change vs veh, GNAQ / RFU, CDK5R1 / Fold change vs veh, CDK5R1 / RFU, ZRANB3 / Fold change vs veh, ZRANB3 / RFU, CUL4A / Fold change vs veh, CUL4A / RFU, CCNY / Fold change vs veh, CCNY / RFU, UFL1 / Fold change vs veh, UFL1 / RFU, COG3 / Fold change vs veh, COG3 / RFU, DIAPH2 / Fold change vs veh, DIAPH2 / RFU, SKA2 / Fold change vs veh, SKA2 / RFU, AFF3 / Fold change vs veh, AFF3 / RFU, LMF1 / Fold change vs veh, LMF1 / RFU, IPO11 / Fold change vs veh, IPO11 / RFU, DFFB / Fold change vs veh, DFFB / RFU, FOXP1 / Fold change vs veh, FOXP1 / RFU, CARD8 / Fold change vs veh, CARD8 / RFU, STRN3 / Fold change vs veh, STRN3 / RFU, ADK / Fold change vs veh, ADK / RFU, RASSF2 / Fold change vs veh, RASSF2 / RFU, WIPF1 / Fold change vs veh, WIPF1 / RFU, LARP1B / Fold change vs veh, LARP1B / RFU, RASA1 / Fold change vs veh, RASA1 / RFU, RB1 / Fold change vs veh, RB1 / RFU, PPFIA1 / Fold change vs veh, PPFIA1 / RFU, MAT2A / Fold change vs veh, MAT2A / RFU, CCT5 / Fold change vs veh, CCT5 / RFU, WDR92 / Fold change vs veh, WDR92 / RFU, CUX1 / Fold change vs veh, CUX1 / RFU, TTC7A / Fold change vs veh, TTC7A / RFU, TMEM135 / Fold change vs veh, TMEM135 / RFU, DEPTOR / Fold change vs veh, DEPTOR / RFU, CPM / Fold change vs veh, CPM / RFU, DNAJB6 / Fold change vs veh, DNAJB6 / RFU, CACNA2D3 / Fold change vs veh, CACNA2D3 / RFU, DTX4 / Fold change vs veh, DTX4 / RFU, TFCP2 / Fold change vs veh, TFCP2 / RFU, GMCL1 /// GMCL1P1 / Fold change vs veh, GMCL1 /// GMCL1P1 / RFU, AEBP2 / Fold change vs veh, AEBP2 / RFU, SNHG1 /// SNORD22 /// SNORD25 /// SNORD26 /// SNORD27 /// SNORD28 /// SNORD29 /// SNORD31 / Fold change vs veh, SNHG1 /// SNORD22 /// SNORD25 /// SNORD26 /// SNORD27 /// SNORD28 /// SNORD29 /// SNORD31 / Fold change (Aza/veh), C12orf56 (ProbeSet 11735607_a_at) / Fold change (ACY-1035/veh), C12orf56 (ProbeSet 11735607_a_at) / Fold change (Aza/veh), FGFR1OP (ProbeSet 11751329_s_at) / Fold change (ACY-1035/veh), FGFR1OP (ProbeSet 11751329_s_at) / Fold change (Aza/veh), VPS36 (ProbeSet 11739960_a_at) / Fold change (ACY-1035/veh), VPS36 (ProbeSet 11739960_a_at) / RFU SYPL1 (11715823_x_at) / Fold change /veh SYPL1 (11715823_x_at) / RFU IGFBP7 (11715501_s_at) / Fold change /veh IGFBP7 (11715501_s_at) / RFU REEP3 (11722064_at) / Fold change /veh REEP3 (11722064_at) / RFU IGLL1 (11728026_x_at) / Fold change /veh IGLL1 (11728026_x_at): dose or concentration left out as unconfirmed
Conditions: ProbeSet 11763895_x_at; LIST B

## Nc1ncn([C@@H]2O[C@H](CO)[C@@H](O)[C@H]2O)c(=O)n1 [azacitidine]
  RFU, SNORA58: 17.25 RFU
